target: T1, human GPR40 (Homo sapiens, UniProt O14842); experiment: Determination of EC50 on human GPR40 (intracellular calcium change by FLIPR in CHO cells stably expressing human GPR40); assay type: cell-based; settings: CHO cell line stably expressing human GPR40; changes in intracellular calcium concentration measured by FLIPR (Fluo3-AM); read-out: EC50 (Receptor Function Modulating Action on GPR40)
T1 construct: expressed in transfected cells
Protocol: Determination of EC50 of the Compound of Example on Human GPR40
For determination of EC50, CHO cell line that stably expressed human GPR40 was used. Unless otherwise indicated, the CHO cell line was cultured using α-MEM medium (Invitrogen) containing 10% fetal calf serum (Invitrogen).
The cells cultured to nearly confluent were rinsed with PBS (Invitrogen) on the previous day of the assay, peeled off with 0.05% Trypsin•EDTA solution (Invitrogen) and recovered by centrifugation. The number of the obtained cells was counted, and the cells were diluted such that 3×10^5 cells were contained per 1 mL of the medium, dispensed to a Black welled 96-well plate (coster) by 100 μL per well and cultured overnight in a CO2 incubator. Various test samples were added to the CHO cells thus prepared, and the changes in the intracellular calcium concentration were measured using FLIPR (Molecular Device). The below-mentioned pre-treatment was applied to measure changes in the intracellular calcium concentration by FLIPR.
An assay buffer for adding a fluorescence dye Fluo3-AM (DOJIN) to the cells, or for washing the cells immediately before FLIPR assay was prepared. To a solution of 1M HEPES (pH 7.4, DOJIN, 20 mL) added to HBSS (Invitrogen, 1000 mL) (hereinafter HBSS/HEPES solution) was added a solution (10 mL) obtained by dissolving probenecid (Sigma, 710 mg) in 1N NaOH (5 mL), and adding and mixing an HBSS/HEPES solution (5 mL), and the resulting solution was used as an assay buffer. Fluo3-AM (50 μg) was dissolved in dimethyl sulfoxide (Wako, 21 μL), and an equivalent amount of 20% pluronic acid (Molecular Probes) was added and mixed. The solution was added to the assay buffer (10.6 mL) supplemented with fetal calf serum (105 μL) to give a fluorescence dye solution. On the previous day of assay, the medium of the CHO cells newly inoculated to the Black welled 96-well plate was removed, the fluorescence dye solution was immediately dispensed by 100 μL per well and the cells were cultured in a CO2 incubator for 1 hr to allow intake of the fluorescence dye by the cells. The cells after the culture were washed with the above-mentioned assay buffer and set on FLIPR. The test sample was diluted with DMSO in advance, dispensed to polypropylene 96-well plate (sample plate) by 2 μL, and cryopreserved at −20° C. To the thawed sample plate was added an assay buffer containing 0.015% CHAPS (DOJIN) by 198 μL, and simultaneously set on FLIPR together with the cell plate. After the aforementioned pre-treatment, changes in the intracellular calcium concentration upon addition of various test samples were measured by FLIPR.

T1 sequence (O14842 whole entry): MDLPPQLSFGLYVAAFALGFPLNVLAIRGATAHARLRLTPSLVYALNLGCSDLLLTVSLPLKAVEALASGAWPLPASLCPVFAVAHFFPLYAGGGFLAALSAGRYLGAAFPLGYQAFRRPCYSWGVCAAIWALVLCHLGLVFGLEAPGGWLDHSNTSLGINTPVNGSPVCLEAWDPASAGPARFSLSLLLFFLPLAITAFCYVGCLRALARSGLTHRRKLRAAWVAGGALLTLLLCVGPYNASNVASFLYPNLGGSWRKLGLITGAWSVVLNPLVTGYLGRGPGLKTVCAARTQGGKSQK

Row | EC50 [nM] | SMILES
1 | < 1000 | CCCN(Cc1ccc(COc2ccc3c(c2)CCCC3CC(=O)O)cc1)c1nc(-c2ccccc2)cs1 (stereo not drawn) [Example 19, {6-[(4-{[(4-phenyl-1,3-thiazol-2-yl)(propyl)amino]methyl}benzyl)oxy]-1,2,3,4-tetrahydronaphthalen-1-yl}acetic acid]
2 | < 100 | Cc1cccc(C)c1-c1cccc(COc2ccc3c(c2)CCC3CC(=O)O)c1 (stereo not drawn) [Example 17, {5-[(2′,6′-dimethylbiphenyl-3-yl)methoxy]-2,3-dihydro-1H-inden-1-yl}acetic acid]
3 | < 100 | Cc1cccc(C)c1-c1cccc(COc2ccc3c(c2)OCCC(C(=O)O)C3)c1 (stereo not drawn) [Example 13, 8-[(2′,6′-dimethylbiphenyl-3-yl)methoxy]-2,3,4,5-tetrahydro-1-benzoxepine-4-carboxylic acid]
4 | < 100 | Cc1cccc(C)c1-c1cccc(COc2ccc3c(c2)CCCC3CC(=O)O)c1 (stereo not drawn) [Example 11, {6-[(2′,6′-dimethylbiphenyl-3-yl)methoxy]-1,2,3,4-tetrahydronaphthalen-1-yl}acetic acid]
5 | < 100 | CCCN(Cc1ccc(COc2ccc3c(c2)OCC3CC(=O)O)cc1)c1nc(-c2ccccc2)cs1 (stereo not drawn) [Example 35, {6-[(4-{[(4-phenyl-1,3-thiazol-2-yl)(propyl)amino]methyl}benzyl)oxy]-2,3-dihydro-1-benzofuran-3-yl}acetic acid]
6 | < 100 | O=C(O)CC1COc2cc(OCc3ccc(Cn4c(-c5ccccc5)cc5ccccc54)cc3)ccc21 (stereo not drawn) [Example 66, [6-({4-[(2-phenyl-1H-indol-1-yl)methyl]benzyl}oxy)-2,3-dihydro-1-benzofuran-3-yl]acetic acid]
7 | < 100 | O=C(O)CC1CCc2cc(OCc3cccc(Oc4ccccc4)c3)ccc21 (stereo not drawn) [Example 15, {5-[(3-phenoxybenzyl)oxy]-2,3-dihydro-1H-inden-1-yl}acetic acid]
8 | < 100 | O=C(O)CC1CCCc2nc(SCc3cccc(Oc4ccccc4)c3)sc21 (stereo not drawn) [Example 78, {2-[(3-phenoxybenzyl)thio]-4,5,6,7-tetrahydro-1,3-benzothiazol-7-yl}acetic acid]
9 | < 100 | Cc1cccc(C)c1-c1cc(COc2ccc3c(c2)OCC3CC(=O)O)ccc1OCc1ccccc1 (stereo not drawn) [Example 75, (6-{[6-(benzyloxy)-2′,6′-dimethylbiphenyl-3-yl]methoxy}-2,3-dihydro-1-benzofuran-3-yl)acetic acid]
10 | < 100 | Cc1cc(OCc2ccccc2)cc(C)c1-c1cccc(COc2ccc3c(c2)OCC3CC(=O)O)c1 (stereo not drawn) [Example 70, (6-{[4′-(benzyloxy)-2′,6′-dimethylbiphenyl-3-yl]methoxy}-2,3-dihydro-1-benzofuran-3-yl)acetic acid]
11 | < 100 | O=C(O)CC1CCCc2cc(OCc3cccc(Oc4ccccc4)c3)ccc21 (stereo not drawn) [Example 6, (6-((3-phenoxybenzyl)oxy)-1,2,3,4-tetrahydro-1-naphthalenyl)acetic acid]
12 | < 1000 | Cc1cccc(C)c1-c1cccc(COc2ccc3c(c2)CCCCC3CC(=O)O)c1 (stereo not drawn) [Example 25, {2-[(2′,6′-dimethylbiphenyl-3-yl)methoxy]-6,7,8,9-tetrahydro-5H-benzo[7]annulen-5-yl}acetic acid]
13 | < 100 | Cc1ccc2ccccc2c1-c1cccc(COc2ccc3c(c2)OCC3CC(=O)O)c1 (stereo not drawn) [Example 47, (6-{[3-(2-methyl-1-naphthyl)benzyl]oxy}-2,3-dihydro-1-benzofuran-3-yl)acetic acid]
14 | < 100 | Cc1cccc(C)c1-c1cccc(COc2ccc3c(c2)OCC3CC(=O)O)c1 (stereo not drawn) [Example 33, {6-[(2′,6′-dimethylbiphenyl-3-yl)methoxy]-2,3-dihydro-1-benzofuran-3-yl}acetic acid]
15 | < 1000 | CCCN(Cc1ccc(COc2ccc3c(c2)OCCC(C(=O)O)C3)cc1)c1nc(-c2ccccc2)cs1 (stereo not drawn) [Example 21, 8-[(4-{[(4-phenyl-1,3-thiazol-2-yl)(propyl)amino]methyl}benzyl)oxy]-2,3,4,5-tetrahydro-1-benzoxepine-4-carboxylic acid]
16 | < 1000 | O=C(O)CC1COc2cc(OCc3ccc(CN(CCc4ccccc4)c4nc(-c5ccccc5)cs4)cc3)ccc21 (stereo not drawn) [Example 73, calcium {6-[(4-{[(2-phenylethyl)(4-phenyl-1,3-thiazol-2-yl)amino]methyl}benzyl)oxy]-2,3-dihydro-1-benzofuran-3-yl}acetate]
17 | < 1000 | C/C(=C\COc1ccc2c(c1)OCC2CC(=O)O)c1ccc2c(c1)CCCC2 (stereo not drawn) [Example 125, (6-{[(2E)-3-(5,6,7,8-tetrahydro-2-naphthalenyl)-2-buten-1-yl]oxy}-2,3-dihydro-1-benzofuran-3-yl)acetic acid]

Row | SMILES | EC50 [nM]
18 | CCCCOCCOc1ccc(-c2cccc(COc3ccc4c(c3)OCC4CC(=O)O)c2)c(C)c1 (stereo not drawn) [Example 58, (6-{[4′-(2-butoxyethoxy)-2′-methylbiphenyl-3-yl]methoxy}-2,3-dihydro-1-benzofuran-3-yl)acetic acid] | < 100
